Assay results taken from patent publication US20080051387A1, “TETRAHYDROPYRIDO[3,4-D]PYRIMIDINES AND RELATED ANALOGUES” (priority 2006, published 2008).

target: T1, chimeric human H3 receptor (Homo sapiens, UniProt Q9Y5N1); test: Chimeric human H3 receptor GTP binding assay (agonist-stimulated GTP-gamma35S binding, Example 7); type: biochemical; conditions: P2 membranes of Sf9 cells, 1 μM histamine as agonist, Ki from IC50 by Cheng-Prusoff; read-out: Ki
T1 construct: rat Galpha-i2 (Gnai2, rat); made in house; host or cells: Sf9 insect cells (baculovirus); P2 membranes
T1 sequence (Q9Y5N1 with tags, fused parts or gaps): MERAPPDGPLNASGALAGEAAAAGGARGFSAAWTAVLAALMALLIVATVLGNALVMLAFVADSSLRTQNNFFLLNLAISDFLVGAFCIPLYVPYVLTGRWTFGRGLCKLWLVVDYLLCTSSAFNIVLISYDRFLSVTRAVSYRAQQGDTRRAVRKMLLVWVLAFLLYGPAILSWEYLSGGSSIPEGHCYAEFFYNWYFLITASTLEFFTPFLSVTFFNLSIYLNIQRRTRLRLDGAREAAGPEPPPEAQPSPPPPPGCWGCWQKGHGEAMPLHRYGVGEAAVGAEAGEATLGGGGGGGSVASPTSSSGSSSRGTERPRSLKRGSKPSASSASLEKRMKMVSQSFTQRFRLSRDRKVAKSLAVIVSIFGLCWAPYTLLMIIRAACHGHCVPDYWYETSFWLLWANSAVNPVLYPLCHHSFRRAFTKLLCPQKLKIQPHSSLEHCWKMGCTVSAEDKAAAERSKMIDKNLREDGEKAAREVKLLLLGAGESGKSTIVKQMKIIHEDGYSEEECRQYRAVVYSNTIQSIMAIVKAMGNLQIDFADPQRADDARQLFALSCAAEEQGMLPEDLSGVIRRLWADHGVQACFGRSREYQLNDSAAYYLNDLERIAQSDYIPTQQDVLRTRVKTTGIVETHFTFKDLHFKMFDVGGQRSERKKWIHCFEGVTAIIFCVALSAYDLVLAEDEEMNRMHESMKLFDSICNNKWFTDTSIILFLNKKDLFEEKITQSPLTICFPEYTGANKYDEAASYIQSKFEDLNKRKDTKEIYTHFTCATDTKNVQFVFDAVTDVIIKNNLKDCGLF
Excerpt: This Example illustrates a representative assay for evaluating agonist-stimulated GTP-gamma^35S binding (“GTP binding”) activity. […] This agonist-stimulated GTP binding activity can also be used to detect partial agonism mediated by antagonist compounds. A compound analyzed in this assay is referred to herein as a “test compound.”
Four independent baculoviral stocks (one directing the expression of the chimeric human H3 receptor and three directing the expression of each of the three subunits of a heterotrimeric G-protein) are used to infect a culture of Sƒ9 cells as described above. P2 membranes are prepared as described above, and agonist-stimulated GTP binding on the P2 membranes is assessed using histamine (Sigma Chemical Co., St. Louis, Mo.) as agonist in order to ascertain that the receptor/G-protein-alpha-beta-gamma combination(s) yield a functional response as measured by GTP binding. P2 membranes are resuspended by Dounce homogenization (tight pestle) in GTP binding assay buffer (50 mM Tris pH 7.4, 120 mM NaCl, 5 mM MgCl2, 2 mM EGTA, 1 mg/ml BSA, 0.2 mg/ml bacitracin, 0.02 mg/ml aprotinin, 0.01 mg/ml saponin, 10 μM GDP) and added to assay tubes at a concentration of 35 μg protein/reaction tube. After adding increasing doses of histamine at concentrations ranging from 10-12 M to 10^−5 M, reactions are initiated by the addition of 125 pM GTP-gamma^35S (PERKIN ELMER; Boston, Mass.) with a final assay volume of 0.20 ml. In competition experiments, non-radiolabeled test compounds are added to separate reactions at concentrations ranging from 10^−10 M to 10^−6 M along with 1 μM histamine to yield a final volume of 0.20 ml.
Neutral antagonists are antagonists that are substantially free of inherent agonist activity, and include those test compounds that reduce the histamine-stimulated GTP binding activity towards, but not below, baseline levels. In contrast, in the absence of added histamine, inverse agonists reduce the GTP binding activity of the receptor-containing membranes below baseline.
After a 60-min incubation at room temperature, reactions are terminated by vacuum filtration over WHATMAN GF/C filters (pre-soaked in wash buffer, 0.1% BSA) followed by washing with ice-cold wash buffer (50 mM Tris pH 7.4, 120 mM NaCl). The amount of receptor-bound (and thereby membrane-bound) GTP-gamma^35S is determined by measuring the filter-bound radioactivity, preferably by liquid scintillation spectrometry of the washed filters. Non-specific binding is determined in parallel assays including 10 μM unlabeled GTP-gammaS and typically represents less than 5 percent of total binding. Data is expressed as percent above basal (baseline). The results of GTP binding experiments are analyzed using SIGMAPLOT software (SPSS Inc., Chicago, Ill.). IC50 values are calculated by non-linear regression analysis of dose-response curves using Kaleidograph (Synergy Software, Reading, Pa.).
Alternatively the data is analyzed as follows. First, the average bound radioactivity from negative control wells (no agonist) is subtracted from the bound radioactivity detected for each of the other experimental wells. Second, average bound radioactivity is calculated for the positive control wells (agonist wells). Then, percent inhibition for each compound tested is calculated using the equation: [formula]
Calculated IC50 values are converted to Ki values by the Cheng-Prusoff correction (Cheng and Prusoff (1973) Biochem. Pharmacol. 22(23):3099-3108). Accordingly, the following equation: Ki=IC50/(1+[L]/EC50) is used, where [L] is the histamine concentration in the GTP binding assay, and EC50 is the concentration of histamine producing a 50% response, as determined by a dose-response analysis using concentrations of histamine ranging from 10^−10 M to 10^−6 M. […]

Ki [µM]	Structure (SMILES)
< 1	CC(C)(C)N1CCN(c2ncnc3c2CCN(Cc2ccccc2)C3)CC1 [Compound 13, 7-benzyl-4-(4-tert-butylpiperazin-1-yl)-5,6,7,8-tetrahydropyrido[3,4-d]pyrimidine]
< 1	c1ccc(CN2CCc3ncnc(N4CCN(C5CCC5)CC4)c3CC2)cc1 [Compound 142, 7-benzyl-4-(4-cyclobutylpiperazin-1-yl)-6,7,8,9-tetrahydro-5H-pyrimido[4,5-d]azepine]
< 1	CC(=O)c1ccc(OCC(=O)N2CCc3ncnc(N4CCN(C5CCC5)CC4)c3CC2)cc1 [Compound 143, 1-(4-{2-[4-(4-cyclobutylpiperazin-1-yl)-5,6,8,9-tetrahydro-7H-pyrimido[4,5-d]azepin-7-yl]-2-oxoethoxy}phenyl)ethanone]
< 1	c1nc2c(c(N3CCN(C4CCC4)CC3)n1)CCNCC2 [Compound 144, 4-(4-cyclobutylpiperazin-1-yl)-6,7,8,9-tetrahydro-5H-pyrimido[4,5-d]azepine]

same assay, conditions: P2 membranes of Sf9 cells, 1 μM histamine as agonist; read-out: Ki in the assay of Example 7

Ki [µM]	Structure (SMILES)
< 1	CC(=O)c1ccc(N2CCc3nc(N4CCN(C5CCC5)CC4)ncc3C2)cc1 [Compound 5, 1-{4-[2-(4-Cyclobutyl-piperazin-1-yl)-7,8-dihydro-5H-pyrido[4,3-d]pyrimidin-6-yl]-phenyl}-ethanone]
< 1	c1nc2c(c(N3CCN(C4CCC4)CC3)n1)CCN(CC1CCCCC1)CC2 [Compound 6, 4-(4-Cyclobutyl-piperazin-1-yl)-7-cyclohexylmethyl-6,7,8,9-tetrahydro-5H-pyrimido[3,4-d]azepine]
< 1	CC(=O)c1ccc(N2CCc3ncnc(N4CCN(C5CCC5)CC4)c3CC2)cc1 [Compound 7, 1-{4-[4-(4-Cyclobutyl-piperazin-1-yl)-5,6,8,9-tetrahydro-pyrimido[4,5-d]azepin-7-yl]-phenyl}-ethanone]
< 1	O=C(c1ccccc1)N1CCc2ncnc(N3CCN(C4CCC4)CC3)c2CC1 [Compound 8, [4-(4-Cyclobutyl-piperazin-1-yl)-5,6,8,9-tetrahydro-pyrimido[4,5-d]azepin-7-yl]-phenyl-methanone]
< 1	c1nc(N2CCN(C3CCC3)CC2)nc2c1CCN(CC1CCCCC1)CC2 [Compound 9, 2-(4-Cyclobutyl-piperazin-1-yl)-7-cyclohexylmethyl-6,7,8,9-tetrahydro-5H-pyrimido[4.5-d]azepine]

target: T1, chimeric human H3 receptor; test: Chimeric human H3 receptor screening GTP binding assay (inhibition of histamine-stimulated GTP-gamma35S binding, Example 8); type: biochemical; conditions: symbol ! in Ki; test compound 4 μM, 1 μM histamine; read-out: percent inhibition of agonist-induced GTP-gammaS binding to H3
Outline: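 Sf9 membranes co-expressing chimeric human H3 receptor and heterotrimeric G-protein (35 μg protein) incubated 60 min at room temperature with 4 μM compound, 1 μM histamine and 125 pM GTP-gamma35S in pH 7.4 buffer with 10 μM GDP. Filter-bound radioactivity, nonspecific (10 μM GTP-gammaS) subtracted, reported as % inhibition of histamine signal.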

inhibition at 4 µM [%]	Structure (SMILES)
≥ 90	CCCCCCN1CCc2nc(N3CCN(C4CCC4)CC3)ncc2C1 [Compound 630, 2-(4-cyclobutylpiperazin-1-yl)-6-hexyl-5,6,7,8-tetrahydropyrido[4,3-d]pyrimidine]
≥ 90	CC(C)CN1CCc2nc(N3CCN(C4CCC4)CC3)ncc2C1 [Compound 631, 2-(4-cyclobutylpiperazin-1-yl)-6-isobutyl-5,6,7,8-tetrahydropyrido[4,3-d]pyrimidine]
≥ 90	CCC(C)CN1CCc2nc(N3CCN(C4CCC4)CC3)ncc2C1 (stereo not drawn) [Compound 632, 2-(4-cyclobutylpiperazin-1-yl)-6-(2-methylbutyl)-5,6,7,8-tetrahydropyrido[4,3-d]pyrimidine]
≥ 90	CCC(CC)CN1CCc2nc(N3CCN(C4CCC4)CC3)ncc2C1 [Compound 633, 2-(4-cyclobutylpiperazin-1-yl)-6-(2-ethylbutyl)-5,6,7,8-tetrahydropyrido[4,3-d]pyrimidine]
≥ 90	c1nc(N2CCN(C3CCC3)CC2)nc2c1CN(CC1CC1)CC2 [Compound 634, 2-(4-cyclobutylpiperazin-1-yl)-6-(cyclopropylmethyl)-5,6,7,8-tetrahydropyrido[4,3-d]pyrimidine]
≥ 90	CCCC(C)CN1CCc2nc(N3CCN(C4CCC4)CC3)ncc2C1 (stereo not drawn) [Compound 635, 2-(4-cyclobutylpiperazin-1-yl)-6-(2-methylpentyl)-5,6,7,8-tetrahydropyrido[4,3-d]pyrimidine]
≥ 90	c1nc(N2CCN(C3CCC3)CC2)nc2c1CN(CC1CCOC1)CC2 (stereo not drawn) [Compound 636, 2-(4-cyclobutylpiperazin-1-yl)-6-(tetrahydrofuran-3-ylmethyl)-5,6,7,8-tetrahydropyrido[4,3-d]pyrimidine]
≥ 90	Cc1ccc(CN2CCc3nc(N4CCN(C5CCC5)CC4)ncc3C2)cc1C [Compound 637, 2-(4-cyclobutylpiperazin-1-yl)-6-(3,4-dimethylbenzyl)-5,6,7,8-tetrahydropyrido[4,3-d]pyrimidine]
≥ 90	c1cc2c(cc1CN1CCc3nc(N4CCN(C5CCC5)CC4)ncc3C1)OCCO2 [Compound 638, 2-(4-cyclobutylpiperazin-1-yl)-6-(2,3-dihydro-1,4-benzodioxin-6-ylmethyl)-5,6,7,8-tetrahydropyrido[4,3-d]pyrimidine]
≥ 90	c1ccc2nc(CN3CCc4nc(N5CCN(C6CCC6)CC5)ncc4C3)ccc2c1 [Compound 639, 2-(4-cyclobutylpiperazin-1-yl)-6-(quinolin-2-ylmethyl)-5,6,7,8-tetrahydropyrido[4,3-d]pyrimidine]
≥ 90	COc1cccc(CN2CCc3nc(N4CCN(C5CCC5)CC4)ncc3C2)c1OC [Compound 640, 2-(4-cyclobutylpiperazin-1-yl)-6-(2,3-dimethoxybenzyl)-5,6,7,8-tetrahydropyrido[4,3-d]pyrimidine]
≥ 90	COc1ccc(OC)c(CN2CCc3nc(N4CCN(C5CCC5)CC4)ncc3C2)c1 [Compound 641, 2-(4-cyclobutylpiperazin-1-yl)-6-(2,5-dimethoxybenzyl)-5,6,7,8-tetrahydropyrido[4,3-d]pyrimidine]
≥ 90	CCn1cncc1CN1CCc2nc(N3CCN(C4CCC4)CC3)ncc2C1 [Compound 642, 2-(4-cyclobutylpiperazin-1-yl)-6-[(1-ethyl-1H-imidazol-5-yl)methyl]-5,6,7,8-tetrahydropyrido[4,3-d]pyrimidine]
≥ 90	c1cc(N2CCCC2)ncc1CN1CCc2nc(N3CCN(C4CCC4)CC3)ncc2C1 [Compound 643, 2-(4-cyclobutylpiperazin-1-yl)-6-[(6-pyrrolidin-1-ylpyridin-3-yl)methyl]-5,6,7,8-tetrahydropyrido[4,3-d]pyrimidine]
≥ 90	Cc1c(F)cccc1CN1CCc2nc(N3CCN(C4CCC4)CC3)ncc2C1 [Compound 644, 2-(4-cyclobutylpiperazin-1-yl)-6-(3-fluoro-2-methylbenzyl)-5,6,7,8-tetrahydropyrido[4,3-d]pyrimidine]
≥ 90	Clc1ccccc1CN1CCc2nc(N3CCN(C4CCC4)CC3)ncc2C1 [Compound 645, 6-(2-chlorobenzyl)-2-(4-cyclobutylpiperazin-1-yl)-5,6,7,8-tetrahydropyrido[4,3-d]pyrimidine]
≥ 90	Clc1ccc(CN2CCc3nc(N4CCN(C5CCC5)CC4)ncc3C2)c(Cl)c1 [Compound 646, 2-(4-cyclobutylpiperazin-1-yl)-6-(2,4-dichlorobenzyl)-5,6,7,8-tetrahydropyrido[4,3-d]pyrimidine]
≥ 90	c1cc(N2CCCC2)ccc1CN1CCc2nc(N3CCN(C4CCC4)CC3)ncc2C1 [Compound 647, 2-(4-cyclobutylpiperazin-1-yl)-6-(4-pyrrolidin-1-ylbenzyl)-5,6,7,8-tetrahydropyrido[4,3-d]pyrimidine]
